Patent EP2657347A1, “Electrochemical competitive assay and use thereof” (Université Paris Diderot - Paris 7, priority 2012, dated 2013)

Columns and labels:
D-Apt49 [1] = assay: Homogeneous electrochemical competitive binding assay in Tris buffer; conditions: 5 µM Fc-L-Tym, K^*d fixed at 1.2 µM
Description: All experiments were performed in 5 mM Tris buffer (pH 7) containing 10 mM MgCl2 and 50 mM NaCl (Recognition Buffer, RBr). The L-Tym concentration is always 5 µM. For cyclic voltammetric experiments, 1 µM [Os(bpy)3]2+ with 5 µM 1-Tym in a droplet of 50 µL RBr was used. So, before each experiment, the droplet is shaking with a micropipette. This procedure is repeated until we obtain a reproducible and stable voltammogram. Mother solution of Fc-1-Tym was a […] solution in DMF. This product is conserved at 4°C and seal with parafilm. Before each experiment, this solution is diluted 10 times in stabilized DMF, such as 0.2 µL in 50 µL of RBr leads to 5 µM of Fc-1-Tym.
Cyclic voltammetry measurements were performed with an AUTOLAB PGSTAT 12 potentiostat/galvanostat controlled by computer, and the data were acquired using GPES 4.9007 software (EcoChemie, The Netherlands). Small self-contained electrochemical cells made of 3 screen-printed electrodes on a flat substrate were used for all experiments. The electrodes were printed using a DEK model-65 screen-printer. Working electrodes were 4 mm diameter screen-printed carbon electrodes prepared using a commercial carbon ink (Electrodag PF-470 A) deposited on the top of an underlying Ag layer (Electrodag 418 SS). Counter electrode was obtained using an Ag ink (Electrodag 418 SS).
Before experiments, the screen-printed carbon electrodes were coated with bovine serum albumin (BSA) by immersing the electrodes in a 1 mg/mL BSA solution for 10 minutes at room temperature. The BSA-modified electrodes were next cycled between 0 V and 0.8 V at v = 0.05 V/s, until of the capacitive background current in cyclic voltammetry was stablized.
The competitive assay can be described by the two equilibrated binding reactions 6a and 6b, in which Fc-L-Tym is L-tyrosinamide labeled by a redox-active ferrocene group. The ferrocenyl label was here incorporated on the ―OH position of the phenolic group (Scheme 1). Note that under this condition the catalytic oxidation of the phenolic residue is no more possible and only the ferrocene labeled molecule can be detected. [drawing 63] [drawing 64] with Kd = (CTCR)/CRT [formula] Kd^(*) = (CT^(*)CR)/CRT^(*) [formula] where CR is the concentration of free aptamer receptor. […] Ideally, the two binding constants should be as close as possible (Kd ≈ K^*d). The value of K^*d was determined by monitoring in CV the reversible response of 5 µM Fc-L-Tym solution as a function of increasing concentrations of D-Apt49.
The competitive binding assay was achieved from two separate solutions containing a starting mixture of 5 µM Fc- L-Tym and 3 µM or 10 µM D-Apt49, and to which an increasing amount of L-Tym was added. […]

D-Apt49 [2] = assay: Homogeneous electrochemical competitive binding assay in 20% fetal bovine serum
Description: • Figure 1: Electrochemically competitive assay of the invention. Left-hand column: before the addition of the sample: a first redox signal is measured. Right-hand column: after the addition of a sample containing the target to be detected or measured: a second redox signal is measured. (A) Homogeneous electrochemically competitive assay: the presence of the target disrupts the complex formed between the oligonucleotide ligand and the redox-labeled target. […] (B) Heterologous electrochemically competitive assay, wherein the oligonucleotide ligand is attached to a solid phase: the presence of the target disrupts the complex formed between the oligonucleotide ligand and the redox-labeled target, thereby inducing a better detection of the redox labeled-target. […] (C) Heterologous electrochemically competitive assay, wherein the oligonucleotide ligand is attached to the electrode: the presence of the target disrupts the complex formed between the oligonucleotide ligand and the redox-labeled target, thereby reducing the detection of the redox labeled-target. […] (f) CV of 1 µM [Os(bpy)3]^2+ alone. […] Error bars: standard deviations from 3 measurements. Plain lines: fits of eq 5 to the experimental data. • Figure 3: (A) CVs (v = 0.05 V s^-1) of 5 mM Tris buffer (pH 7.0) containing 50 mM NaCl, 10 mM Mg^2+, 5 µM Fc-L-Tym and (a) 0 µM, (b) 1 µM, (c) 2 µM, (d) 3 µM, (e) 4 µM (f) 5 µM (g) 7.5 µM (h) 10 µM (i) 12.5 µM and (j) 15 µM of D-Apt49. (B) Normalized anodic peak current response as a function of aptamer concentration. Each data is the average of 3 measurements. Error bars are standard deviations. Plain line: fit of eq 5 to the experimental data. • Figure 4: Competitive binding curves performed in (A) 5 mM Tris buffer (pH 7 + 50 mM NaCl + 10 mM MgCl2) or (B) 20% fetal bovine serum (simply diluted with a 4 mM MgCl2 aqueous solution) as a function of (●, ★, ▼, Δ) L-Tym or (○) D-Tym concentration. (*) Assay of 5 µM L-Tym in the presence of 5 mM D-Tym. The Fc-L-Tym concentration was always C^0T*= 5 µM, whereas the D-Apt49 concentrations were C^0R: (●) 3, (★,○,*) 10, (▼) 40 and (Δ) 100 µM.
The enantiospecificity of the assay was next characterized using the same methodology but for solutions containing the D-Tym enantiomer. […] To evaluate the enantiospecific performance of the aptamer, the assay of trace amount of L-Tym in the presence of a large excess of D-Tym was examined and, as reported in Figure 4A, it has been found possible to detect as low as 5 µM L-Tym in the presence of 5 mM D-Tym. This remarkable performance means that as low as 0.1 % of an enantiomeric impurity in a nonracemic mixture can be assayed in a very short analysis time (<1 min). This is competitive with conventional separation techniques, and one order of magnitude lower than the 1% currently attainable by NMR. Finally, the ability to perform an assay under realistic biological conditions was examined. For such purpose, homogenous electrochemical competitive binding assays of 5-fold diluted fetal bovin serum samples spiked with known amounts of […] were then performed (Figure 4B).

Kd (D-Apt49 [1]; 3 µM D-Apt49, Tris buffer): 2.8 ± 0.4 µM
Kd (D-Apt49 [1]; 10 µM D-Apt49, Tris buffer): 2.2 ± 0.6 µM
Kd (D-Apt49 [2]; 5-fold diluted fetal bovine serum, average of the fitted curves, read-out: Kd (average value)): 10 µM
Kd (D-Apt49 [2]; 20% fetal bovine serum, 5 µM Fc-L-Tym, 40 µM D-Apt49, read-out: Kd): 9 µM
Kd (D-Apt49 [2]; 20% fetal bovine serum, 5 µM Fc-L-Tym, 100 µM D-Apt49, read-out: Kd): 11 µM
Compound: NC(=O)[C@@H](N)Cc1ccc(O)cc1 [L-Tym, L-tyrosinamide]
